Source: ChEMBL document CHEMBL3137667, “[Drug-induced liver injury; fourteenth updated edition of the bibliographic database of liver injuries and related drugs]” (Gastroenterol Clin Biol, 2004)

How the values were obtained:
[1] = human
[2] = human; remark: listed apart in the source
[3] = human; remark: listed apart in the source
[4] = human; remark: listed apart in the source
[5] = Highest frequency of acute liver toxicity observed during clinical trials, expressed as a percentage. [column '% AIGUE' in source]; conditions: human
[6] = human, serum, 4383 h
[7] = human; remark: listed apart in the source
[8] = Times to onset, minimal and maximal, observed in the indexed observations. [column 'DELAI' in source]; conditions: human
[9] = human, serum
[10] = human; remark: listed apart in the source
[11] = human; remark: listed apart in the source
[12] = human; remark: listed apart in the source
[13] = Highest frequency of moderate liver toxicity observed during clinical trials, expressed as a percentage. [column '% BIOL' in source]; conditions: human
[14] = human, serum; remark: listed apart in the source
[15] = human; remark: listed apart in the source
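For Hepatotoxicity (association with vascular disease) in this document: count of indexed literature references reporting vascular liver injury in humans, e.g. peliosis hepatitis, hepatic veno-occlusive disease or Budd-Chiari syndrome.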
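For Hepatotoxicity (benign tumour) in this document: value is a count of indexed literature references citing a benign tumour confirmed by histopathology.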
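For Hepatotoxicity (choleostasis) in this document: human cholestatic liver injury, shown by histopathology or by peak ALT or AST elevation over alkaline phosphatase ratio below 2, value counts indexed literature reports.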
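For Hepatotoxicity (chronic liver disease) in this document: chronic liver injury confirmed by histopathology or persistently raised serum aminotransferase activity beyond 6 months, value given as the count of indexed literature references.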
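For Hepatotoxicity (cirrhosis) in this document: value is a count of indexed literature references reporting cirrhosis confirmed by histopathology.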
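For Hepatotoxicity (cytolytic) in this document: human cytolytic liver injury, shown by histopathology or by a ratio above 5 of peak ALT or AST elevation to alkaline phosphatase elevation, value counts indexed references.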
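For Hepatotoxicity (granulomatous hepatitis) in this document: value is a count of indexed literature references reporting granulomatous liver disease confirmed by histopathology.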
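For Hepatotoxicity (malignant tumour) in this document: malignant tumour confirmed by histopathology, value gives the count of indexed literature references reporting it.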
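For Hepatotoxicity (severe hepatitis) in this document: human clinical data: severe hepatitis, meaning potentially life-threatening liver failure or clinically observed cases, the value counts how many indexed literature references report it.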
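For Hepatotoxicity (steatosis) in this document: steatosis confirmed by histopathology, value is the count of indexed references.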

CN1CCN(C(=O)OC2c3nccnc3C(=O)N2c2ccc(Cl)cn2)CC1 (stereo not given) [ZOPICLONE]
Hepatotoxicity (cytolytic) [1]: 1 | Hepatotoxicity (granulomatous hepatitis) [2]: 0 | Hepatotoxicity (steatosis) [3]: 0 | Hepatotoxicity (malignant tumour) [4]: 0 | Hepatotoxicity (acute) [5]: 0% | Hepatotoxicity (chronic liver disease) [6]: 0 | Hepatotoxicity (cirrhosis) [7]: 0 | Hepatotoxicity (time to onset) [8]: 6 months | Hepatotoxicity (moderate) [9]: 0 | Hepatotoxicity (association with vascular disease) [10]: 0 | Hepatotoxicity (choleostasis) [11]: 1 | Hepatotoxicity (severe hepatitis) [12]: 0 | Hepatotoxicity (moderate) [13]: 0% | Hepatotoxicity (acute) [14]: 1 | Hepatotoxicity (benign tumour) [15]: 0

CCC(=O)[C@@]1(C)CC[C@H]2[C@@H]3CCC4=CC(=O)CCC4=C3CC[C@@]21C [PROMEGESTONE]
Hepatotoxicity (cytolytic) [1]: 0 | Hepatotoxicity (granulomatous hepatitis) [2]: 0 | Hepatotoxicity (steatosis) [3]: 0 | Hepatotoxicity (malignant tumour) [4]: 0 | Hepatotoxicity (acute) [5]: 0% | Hepatotoxicity (chronic liver disease) [6]: 0 | Hepatotoxicity (cirrhosis) [7]: 0 | Hepatotoxicity (time to onset) [8]: 3 years | Hepatotoxicity (moderate) [9]: 0 | Hepatotoxicity (association with vascular disease) [10]: 0 | Hepatotoxicity (choleostasis) [11]: 0 | Hepatotoxicity (severe hepatitis) [12]: 0 | Hepatotoxicity (moderate) [13]: 0% | Hepatotoxicity (acute) [14]: 0 | Hepatotoxicity (benign tumour) [15]: 1

CCOC(Nc1ccc(C(=O)O)cc1)C(=O)c1ccc(-c2ccccc2)cc1 (stereo not given) [XENAZOIC ACID]
Hepatotoxicity (cytolytic) [1]: 0 | Hepatotoxicity (granulomatous hepatitis) [2]: 0 | Hepatotoxicity (steatosis) [3]: 0 | Hepatotoxicity (malignant tumour) [4]: 0 | Hepatotoxicity (acute) [5]: 0% | Hepatotoxicity (chronic liver disease) [6]: 0 | Hepatotoxicity (cirrhosis) [7]: 0 | Hepatotoxicity (time to onset) [8]: 1 week - 2 weeks | Hepatotoxicity (moderate) [9]: 0 | Hepatotoxicity (association with vascular disease) [10]: 0 | Hepatotoxicity (choleostasis) [11]: 0 | Hepatotoxicity (severe hepatitis) [12]: 0 | Hepatotoxicity (moderate) [13]: 0% | Hepatotoxicity (acute) [14]: 2 | Hepatotoxicity (benign tumour) [15]: 0

O=P(O)(O)C(Sc1ccc(Cl)cc1)P(=O)(O)O [TILUDRONIC ACID]
Hepatotoxicity (cytolytic) [1]: 0 | Hepatotoxicity (granulomatous hepatitis) [2]: 0 | Hepatotoxicity (steatosis) [3]: 0 | Hepatotoxicity (malignant tumour) [4]: 0 | Hepatotoxicity (acute) [5]: 0% | Hepatotoxicity (chronic liver disease) [6]: 0 | Hepatotoxicity (cirrhosis) [7]: 0 | Hepatotoxicity (time to onset) [8]: 8 weeks | Hepatotoxicity (moderate) [9]: 1 | Hepatotoxicity (association with vascular disease) [10]: 0 | Hepatotoxicity (choleostasis) [11]: 0 | Hepatotoxicity (severe hepatitis) [12]: 0 | Hepatotoxicity (moderate) [13]: 0.9% | Hepatotoxicity (acute) [14]: 0 | Hepatotoxicity (benign tumour) [15]: 0

OCCN1CCN(CCCN2c3ccccc3C=Cc3ccccc32)CC1 [OPIPRAMOL]
Hepatotoxicity (cytolytic) [1]: 2 | Hepatotoxicity (granulomatous hepatitis) [2]: 0 | Hepatotoxicity (steatosis) [3]: 0 | Hepatotoxicity (malignant tumour) [4]: 0 | Hepatotoxicity (acute) [5]: 0% | Hepatotoxicity (chronic liver disease) [6]: 0 | Hepatotoxicity (cirrhosis) [7]: 0 | Hepatotoxicity (time to onset) [8]: 11 days - 11 weeks | Hepatotoxicity (moderate) [9]: 0 | Hepatotoxicity (association with vascular disease) [10]: 0 | Hepatotoxicity (choleostasis) [11]: 0 | Hepatotoxicity (severe hepatitis) [12]: 1 | Hepatotoxicity (moderate) [13]: 0% | Hepatotoxicity (acute) [14]: 2 | Hepatotoxicity (benign tumour) [15]: 0

CCn1cc(C(=O)O)c(=O)c2cc(F)c(N3CCNCC3)nc21 [ENOXACIN]
Hepatotoxicity (cytolytic) [1]: 0 | Hepatotoxicity (granulomatous hepatitis) [2]: 0 | Hepatotoxicity (steatosis) [3]: 0 | Hepatotoxicity (malignant tumour) [4]: 0 | Hepatotoxicity (acute) [5]: 0% | Hepatotoxicity (chronic liver disease) [6]: 0 | Hepatotoxicity (cirrhosis) [7]: 0 | Hepatotoxicity (time to onset) [8]: 9 days | Hepatotoxicity (moderate) [9]: 6 | Hepatotoxicity (association with vascular disease) [10]: 0 | Hepatotoxicity (choleostasis) [11]: 1 | Hepatotoxicity (severe hepatitis) [12]: 0 | Hepatotoxicity (moderate) [13]: 3.3% | Hepatotoxicity (acute) [14]: 1 | Hepatotoxicity (benign tumour) [15]: 0

CCS(=O)(=O)CCn1c([N+](=O)[O-])cnc1C [TINIDAZOLE]
Hepatotoxicity (cytolytic) [1]: 1 | Hepatotoxicity (granulomatous hepatitis) [2]: 0 | Hepatotoxicity (steatosis) [3]: 0 | Hepatotoxicity (malignant tumour) [4]: 0 | Hepatotoxicity (acute) [5]: 0% | Hepatotoxicity (chronic liver disease) [6]: 0 | Hepatotoxicity (cirrhosis) [7]: 0 | Hepatotoxicity (time to onset) [8]: 1 week | Hepatotoxicity (moderate) [9]: 1 | Hepatotoxicity (association with vascular disease) [10]: 0 | Hepatotoxicity (choleostasis) [11]: 0 | Hepatotoxicity (severe hepatitis) [12]: 0 | Hepatotoxicity (moderate) [13]: 0% | Hepatotoxicity (acute) [14]: 1 | Hepatotoxicity (benign tumour) [15]: 0

Nc1c2c(nc3ccccc13)CCCC2O (stereo not given) [VELNACRINE]
Hepatotoxicity (cytolytic) [1]: 2 | Hepatotoxicity (granulomatous hepatitis) [2]: 0 | Hepatotoxicity (steatosis) [3]: 0 | Hepatotoxicity (malignant tumour) [4]: 0 | Hepatotoxicity (acute) [5]: 7.3% | Hepatotoxicity (chronic liver disease) [6]: 0 | Hepatotoxicity (cirrhosis) [7]: 0 | Hepatotoxicity (time to onset) [8]: 4 weeks - 3 months | Hepatotoxicity (moderate) [9]: 8 | Hepatotoxicity (association with vascular disease) [10]: 0 | Hepatotoxicity (choleostasis) [11]: 0 | Hepatotoxicity (severe hepatitis) [12]: 0 | Hepatotoxicity (moderate) [13]: 35% | Hepatotoxicity (acute) [14]: 2 | Hepatotoxicity (benign tumour) [15]: 0

CC1=C(/C=C/C(C)=C/C=C/C(C)=C/C(=O)Nc2ccc(O)cc2)C(C)(C)CCC1 [FENRETINIDE]
Hepatotoxicity (cytolytic) [1]: 0 | Hepatotoxicity (granulomatous hepatitis) [2]: 0 | Hepatotoxicity (steatosis) [3]: 0 | Hepatotoxicity (malignant tumour) [4]: 0 | Hepatotoxicity (acute) [5]: 0% | Hepatotoxicity (chronic liver disease) [6]: 0 | Hepatotoxicity (cirrhosis) [7]: 0 | Hepatotoxicity (time to onset) [8]: 1 week | Hepatotoxicity (moderate) [9]: 3 | Hepatotoxicity (association with vascular disease) [10]: 0 | Hepatotoxicity (choleostasis) [11]: 0 | Hepatotoxicity (severe hepatitis) [12]: 0 | Hepatotoxicity (moderate) [13]: 12.8% | Hepatotoxicity (acute) [14]: 0 | Hepatotoxicity (benign tumour) [15]: 0

CCC1(C)CC(=O)NC1=O (stereo not given) [ETHOSUXIMIDE]
Hepatotoxicity (cytolytic) [1]: 0 | Hepatotoxicity (granulomatous hepatitis) [2]: 0 | Hepatotoxicity (steatosis) [3]: 0 | Hepatotoxicity (malignant tumour) [4]: 0 | Hepatotoxicity (acute) [5]: 0% | Hepatotoxicity (chronic liver disease) [6]: 0 | Hepatotoxicity (cirrhosis) [7]: 0 | Hepatotoxicity (time to onset) [8]: 1 month | Hepatotoxicity (moderate) [9]: 2 | Hepatotoxicity (association with vascular disease) [10]: 0 | Hepatotoxicity (choleostasis) [11]: 0 | Hepatotoxicity (severe hepatitis) [12]: 0 | Hepatotoxicity (moderate) [13]: 0% | Hepatotoxicity (acute) [14]: 0 | Hepatotoxicity (benign tumour) [15]: 0

CCOC(=O)[C@H](CCc1ccccc1)N[C@H]1CCCN2CCC[C@@H](C(=O)O)N2C1=O [CILAZAPRIL]
Hepatotoxicity (cytolytic) [1]: 0 | Hepatotoxicity (granulomatous hepatitis) [2]: 0 | Hepatotoxicity (steatosis) [3]: 0 | Hepatotoxicity (malignant tumour) [4]: 0 | Hepatotoxicity (acute) [5]: 0% | Hepatotoxicity (chronic liver disease) [6]: 0 | Hepatotoxicity (cirrhosis) [7]: 0 | Hepatotoxicity (time to onset) [8]: 2 months | Hepatotoxicity (moderate) [9]: 1 | Hepatotoxicity (association with vascular disease) [10]: 0 | Hepatotoxicity (choleostasis) [11]: 0 | Hepatotoxicity (severe hepatitis) [12]: 0 | Hepatotoxicity (moderate) [13]: 1.2% | Hepatotoxicity (acute) [14]: 0 | Hepatotoxicity (benign tumour) [15]: 0

C1CC1 [CYCLOPROPANE]
Hepatotoxicity (cytolytic) [1]: 3 | Hepatotoxicity (granulomatous hepatitis) [2]: 0 | Hepatotoxicity (steatosis) [3]: 0 | Hepatotoxicity (malignant tumour) [4]: 0 | Hepatotoxicity (acute) [5]: 0% | Hepatotoxicity (chronic liver disease) [6]: 0 | Hepatotoxicity (cirrhosis) [7]: 0 | Hepatotoxicity (time to onset) [8]: 1 day - 2 weeks | Hepatotoxicity (moderate) [9]: 0 | Hepatotoxicity (association with vascular disease) [10]: 0 | Hepatotoxicity (choleostasis) [11]: 0 | Hepatotoxicity (severe hepatitis) [12]: 2 | Hepatotoxicity (moderate) [13]: 0% | Hepatotoxicity (acute) [14]: 3 | Hepatotoxicity (benign tumour) [15]: 0

CCc1oc2ccccc2c1C(=O)c1cc(I)c(O)c(I)c1 [BENZIODARONE]
Hepatotoxicity (cytolytic) [1]: 0 | Hepatotoxicity (granulomatous hepatitis) [2]: 0 | Hepatotoxicity (steatosis) [3]: 0 | Hepatotoxicity (malignant tumour) [4]: 0 | Hepatotoxicity (acute) [5]: 0% | Hepatotoxicity (chronic liver disease) [6]: 0 | Hepatotoxicity (cirrhosis) [7]: 0 | Hepatotoxicity (time to onset) [8]: 1 month - 4 months | Hepatotoxicity (moderate) [9]: 0 | Hepatotoxicity (association with vascular disease) [10]: 0 | Hepatotoxicity (choleostasis) [11]: 3 | Hepatotoxicity (severe hepatitis) [12]: 0 | Hepatotoxicity (moderate) [13]: 0% | Hepatotoxicity (acute) [14]: 3 | Hepatotoxicity (benign tumour) [15]: 0

CN1CCC(=C2c3ccccc3CCc3sccc32)CC1 [PIZOTYLINE]
Hepatotoxicity (cytolytic) [1]: 0 | Hepatotoxicity (granulomatous hepatitis) [2]: 0 | Hepatotoxicity (steatosis) [3]: 0 | Hepatotoxicity (malignant tumour) [4]: 0 | Hepatotoxicity (acute) [5]: 0% | Hepatotoxicity (chronic liver disease) [6]: 0 | Hepatotoxicity (cirrhosis) [7]: 0 | Hepatotoxicity (time to onset) [8]: 12 days | Hepatotoxicity (moderate) [9]: 0 | Hepatotoxicity (association with vascular disease) [10]: 0 | Hepatotoxicity (choleostasis) [11]: 1 | Hepatotoxicity (severe hepatitis) [12]: 0 | Hepatotoxicity (moderate) [13]: 0% | Hepatotoxicity (acute) [14]: 1 | Hepatotoxicity (benign tumour) [15]: 0

MEGLUMINE ANTIMONATE
Hepatotoxicity (cytolytic) [1]: 0 | Hepatotoxicity (granulomatous hepatitis) [2]: 0 | Hepatotoxicity (steatosis) [3]: 0 | Hepatotoxicity (malignant tumour) [4]: 0 | Hepatotoxicity (acute) [5]: 0% | Hepatotoxicity (chronic liver disease) [6]: 0 | Hepatotoxicity (cirrhosis) [7]: 0 | Hepatotoxicity (time to onset) [8]: 6 hours - 6 days | Hepatotoxicity (moderate) [9]: 3 | Hepatotoxicity (association with vascular disease) [10]: 0 | Hepatotoxicity (choleostasis) [11]: 0 | Hepatotoxicity (severe hepatitis) [12]: 0 | Hepatotoxicity (moderate) [13]: 6% | Hepatotoxicity (acute) [14]: 1 | Hepatotoxicity (benign tumour) [15]: 0
